Test results taken from patent US20220073496A1, “NOVEL QUINOLINE DERIVATIVE INHIBITOR” (Nanjing Transthera Biosciences Co., Ltd., priority 2018, published 2022).

Key:
[1] = molecular target: T1, H1299 cell pAxl (Homo sapiens, UniProt P30530); test: Inhibitory activity on the cell pAxl (Western Blot); assay type: cell-based; conditions: H1299 cells, compound 1.1, 3.3, 10, 30 nM, hGAS6 200 ng/mL
T1 construct: endogenous in cells; host or cells: H1299
T1 sequence (P30530 26-894): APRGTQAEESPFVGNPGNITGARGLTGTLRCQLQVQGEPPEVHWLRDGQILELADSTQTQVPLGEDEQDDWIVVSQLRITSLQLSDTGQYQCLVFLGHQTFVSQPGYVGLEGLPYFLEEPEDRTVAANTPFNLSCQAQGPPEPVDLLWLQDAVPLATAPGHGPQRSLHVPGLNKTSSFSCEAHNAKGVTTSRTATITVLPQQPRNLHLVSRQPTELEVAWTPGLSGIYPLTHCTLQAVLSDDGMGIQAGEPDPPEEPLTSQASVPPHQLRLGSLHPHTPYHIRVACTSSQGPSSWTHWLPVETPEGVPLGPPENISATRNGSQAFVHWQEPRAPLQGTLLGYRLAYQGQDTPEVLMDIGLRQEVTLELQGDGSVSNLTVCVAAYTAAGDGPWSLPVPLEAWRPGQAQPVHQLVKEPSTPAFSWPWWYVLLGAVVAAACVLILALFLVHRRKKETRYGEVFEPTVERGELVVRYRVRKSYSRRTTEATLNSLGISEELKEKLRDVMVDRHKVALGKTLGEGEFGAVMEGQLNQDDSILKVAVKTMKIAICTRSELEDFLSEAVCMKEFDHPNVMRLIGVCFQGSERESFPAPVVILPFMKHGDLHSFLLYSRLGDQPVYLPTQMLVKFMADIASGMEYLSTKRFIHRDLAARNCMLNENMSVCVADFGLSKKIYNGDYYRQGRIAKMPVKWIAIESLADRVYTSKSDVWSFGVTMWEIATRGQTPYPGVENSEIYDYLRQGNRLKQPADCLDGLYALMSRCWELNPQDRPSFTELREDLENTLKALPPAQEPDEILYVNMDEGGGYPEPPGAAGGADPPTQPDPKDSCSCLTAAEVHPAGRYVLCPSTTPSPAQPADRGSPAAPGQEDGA
Description: Assay 5: Test for Inhibitory Activities of the Compounds of the Present Invention on the Cell pAxl
H1299 is a non-small cell lung cancer cell.
Test substances: the compounds of the present invention, wherein the structures thereof were as described above.
Test equipment: protein electrophoresis apparatus (manufactured by Bio Rad), transfer unit (manufactured by Bio Rad), exposure unit (manufactured by Tanon), CO2, cell incubator (manufactured by Thermo).
The H1299 cells were inoculated in a 6-well plate (containing 10% FBS 1640 medium, 5×10^5 cells per well), and adherent cells were cultivated at 37° C. in a 5% CO2 condition for 18 hours. The cells were starved overnight. Different concentrations of compounds were added. The final compound concentrations were 1.1, 3.3, 10, and 30 nM, and the final DMSO content was 1‰. The negative control wells contained the medium containing 1‰ DMSO. After incubating at 37° C. in a 5% CO2 condition for 60 minutes, hGAS6 (R&D, final concentration 200 ng/mL) was added to each well. After further incubating for 60 minutes, the cell total protein was extracted for Western Blot and the […] values were calculated using GraphPad 5.0 software. The inhibitory activity of the compound on the cell pAxl was examined.

[2] = molecular target: T2, Tyro-3 (h) (Homo sapiens, UniProt Q06418); test: Enzymatic activity test, Tyro-3 (h); assay type: biochemical; conditions: 10 μM [γ-33P]-ATP, 40 minutes, room temperature
T2 construct: purchased
T2 sequence (Q06418 41-890): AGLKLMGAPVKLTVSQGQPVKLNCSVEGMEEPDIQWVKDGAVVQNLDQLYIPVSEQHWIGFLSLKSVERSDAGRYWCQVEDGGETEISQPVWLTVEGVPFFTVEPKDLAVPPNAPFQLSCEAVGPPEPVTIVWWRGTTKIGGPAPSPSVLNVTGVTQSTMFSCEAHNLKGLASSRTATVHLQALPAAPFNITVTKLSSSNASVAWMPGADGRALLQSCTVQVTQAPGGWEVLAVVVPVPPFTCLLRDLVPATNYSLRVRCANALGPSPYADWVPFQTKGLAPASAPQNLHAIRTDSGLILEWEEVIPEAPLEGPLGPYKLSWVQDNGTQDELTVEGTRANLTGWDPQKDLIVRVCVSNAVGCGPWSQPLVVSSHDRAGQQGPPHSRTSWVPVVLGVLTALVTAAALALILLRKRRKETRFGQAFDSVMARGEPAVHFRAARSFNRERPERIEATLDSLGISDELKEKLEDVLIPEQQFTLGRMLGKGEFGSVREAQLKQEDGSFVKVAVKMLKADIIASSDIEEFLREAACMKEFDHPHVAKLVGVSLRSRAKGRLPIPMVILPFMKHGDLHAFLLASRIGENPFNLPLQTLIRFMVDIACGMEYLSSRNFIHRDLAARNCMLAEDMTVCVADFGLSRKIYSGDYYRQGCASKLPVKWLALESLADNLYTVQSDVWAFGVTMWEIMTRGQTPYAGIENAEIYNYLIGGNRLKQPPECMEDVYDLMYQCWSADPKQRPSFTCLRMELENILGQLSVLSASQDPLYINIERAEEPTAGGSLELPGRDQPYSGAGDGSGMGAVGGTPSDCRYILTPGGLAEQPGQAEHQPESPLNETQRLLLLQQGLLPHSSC
Description: Assay 3: Enzymatic Activity Test of the Compounds of the Present Invention
Test substances: the compounds of the present invention, wherein the structures and preparations thereof were as described above.
(1) Preparation of the Compound Stock Solution
The compound was dissolved in 100% DMSO to prepare a stock solution with a maximum concentration of 500 μM.
(2) Preparation of the Compound Working Solution
The compound stock solution was diluted to final concentrations of 500, 150, 50, 15, 5, 1.5, 0.5, 0.15 and 0.05 μM to become the compound working solutions (50×).
(3) Preparation of Different Enzyme Reaction Solutions
The Tyro3 (h) enzyme was dissolved in 8 mM MOPS (pH 7.0), 0.2 mM EDTA, 1 mM MnCl2, and 250 μM KVEKIGEGTYGVVYK to prepare an enzyme solution having a final concentration of 38 nM. The enzymatic reaction was activated by using 10 mM magnesium acetate and 10 μM [γ-^33P]-ATP to form an Mg/ATP mixed solution.
In a 384-well plate, the compound working solution was added to final concentrations of 10000, 3000, 1000, 300, 100, 30, 10, 3, and 1 nM. Then different enzyme reaction solutions prepared according to the above conditions were added. The incubation was carried out for 40 minutes at room temperature. The test was terminated by the addition of a 0.5% phosphoric acid solution. 10 μL of the reaction solution was taken and dropped to the P30 filter paper. The filter paper was washed 4 times with 0.425% phosphoric acid solution and once with methanol, and then placed on a scintillation counter. The […] IC50 values were calculated using GraphPad 5.0 software.

COc1cc2nccc(Oc3ncc(NC(=O)c4cn(C(C)C)nc(-c5ccc(F)cc5)c4=O)cn3)c2cc1OC [Compound 40, N-(2-((6,7-dimethoxyquinolin-4-yl)oxy)pyrimidine-5-yl)-6-(4-fluorophenyl)-2-isopropyl-5-oxo-2,5-dihydropyridazine-4-carboxamide]
IC50 [1]: 10 nM | IC50 [2]: 143 nM

COc1cc2nccc(Oc3cnc(NC(=O)c4cn(C(C)C)nc(-c5ccc(F)cc5)c4=O)nc3)c2cc1OC [Compound 39, N-(5-((6,7-dimethoxyquinolin-4-yl)oxy)pyrimidine-2-yl)-6-(4-fluorophenyl)-2-isopropyl-5-oxo-2,5-dihydropyridazine-4-carboxamide]
IC50 [1]: 3.3 nM | IC50 [2]: 36 nM

COc1cc2nccc(Oc3ccc(NC(=O)c4cn(C(C)C)nc(-c5ccc(F)cc5)c4=O)nc3)c2cc1OC [Compound 41, N-(5-((6,7-dimethoxyquinolin-4-yl)oxy)pyridin-2-yl)-6-(4-fluorophenyl)-2-isopropyl-5-oxo-2,5-dihydropyridazine-4-carboxamide]
IC50 [1]: < 10 nM | IC50 [2]: 65 nM

COc1cc2nccc(Oc3ccc(NC(=O)c4cn(C5CC5)nc(-c5ccc(F)cc5)c4=O)nc3)c2cc1OC [Compound 42, 2-cyclopropyl-N-(5--((6,7-dimethoxyquinolin-4-yl)oxy)pyridin-2-yl)-6-(4-fluorophenyl)-5-oxo-2,5-dihydropyridazine-4-carboxamide]
IC50 [1]: 1.1 to 3.3 nM

COc1cc2nccc(Oc3cnc(NC(=O)c4cn(C5CC5)nc(-c5ccc(F)cc5)c4=O)nc3)c2cc1OC [Compound 45, 2-cyclopropyl-N-(5-((6,7-dimethoxyquinolin-4-yl)oxy)pyrimidine-2-yl)-6-(4-fluorophenyl)-5-oxo-2,5-dihydropyridazine-4-carboxamide]
IC50 [1]: 1.1 nM

COc1cc2nccc(Oc3ccc(NC(=O)c4nn(C(C)C)cc(-c5ccc(F)cc5)c4=O)nc3)c2cc1OC [Compound 15, N-(5-((6,7-dimethoxyquinolin-4-yl)oxy)pyridin-2-yl)-5-(4-fluorophenyl)-1-isopropyl-4-oxo-1,4-dihydropyridazine-3-carboxamide]
IC50 [1]: < 1.1 nM | IC50 [2]: 13 nM

COc1cc2nccc(Oc3cnc(NC(=O)c4cn(C(C)C)cc(-c5ccc(F)cc5)c4=O)nc3)c2cc1OC [Compound 20, N-(5-((6,7-dimethoxyquinolin-4-y)oxy)pyrimidine-2-yl)-5-(4-fluorophenyl)-1-isopropyl-4-oxo-1,4-dihydropyridin-3-carboxamide]
IC50 [1]: < 1.1 nM

COc1cc2nccc(Oc3ncc(NC(=O)c4nn(C(C)C)cc(-c5ccc(F)cc5)c4=O)cn3)c2cc1OC [Compound 34, N-(2-((6,7-dimethoxyquinolin-4-yl)oxy)pyrimidine-5-yl)-5-para-fluorophenyl-1-isopropyl-4-oxo-1,4-dihydropyridazine-3-carboxamide]
IC50 [1]: < 1.1 nM | IC50 [2]: 7 nM

COc1cc2nccc(Oc3ccc(NC(=O)c4nn(C(C)C)cc(-c5ccc(F)cc5)c4=O)cn3)c2cc1OC [Compound 29, N-(6-((6,7-dimethoxyquinolin-4-yl)oxy)pyridin-3-yl)-1-isopropyl-4-oxo-5-para-fluorophenyl-1,4-dihydropyridazine-3-carboxamide]
IC50 [1]: < 1.1 nM | IC50 [2]: 12 nM

COc1cc2nccc(Oc3ccc(NC(=O)c4cn(C5CC5)cc(-c5ccc(F)cc5)c4=O)nc3)c2cc1OC [Compound 30, N-(5-((6,7-dimethoxyquinolin-4-yl)oxy)pyridin-2-yl)-1-cyclopropyl-4-oxo-5-para-fluorophenyl-1,4-hydropyridin-3-carboxamide]
IC50 [1]: < 1.1 nM | IC50 [2]: 16 nM

COc1cc2nccc(Oc3ccc(NC(=O)c4cn(C(C)C)nc(-c5ccc(F)cc5)c4=O)cn3)c2cc1OC [Compound 38, N-(6-((6,7-dimethoxyquinolin-4-yl)oxy)pyridin-3-yl)-6-para-fluorophenyl-2-isopropyl-5-oxo-2,5-dihydropyridazine-4-carboxamide]
IC50 [1]: 3.3 nM | IC50 [2]: 93 nM

COc1cc2nccc(Oc3ccc(NC(=O)c4cn(C(C)C)cc(-c5ccc(F)cc5)c4=O)nc3)c2cc1OC [Compound 14, N-(5-((6,7-dimethoxyquinolin-4-yl)oxy)pyridin-2-yl)-5-(4-fluorophenyl)-1-isopropyl-4-oxo-1,4-dihydropyridin-3-carboxamide]
IC50 [1]: < 1.1 nM | IC50 [2]: 21 nM

COc1cc2nccc(Oc3ccc(NC(=O)c4nn(C5CC5)cc(-c5ccc(F)cc5)c4=O)cn3)c2cc1OC [Compound 36]
IC50 [1]: < 1.1 nM | IC50 [2]: 7 nM

COc1cc2nccc(Oc3cnc(NC(=O)c4nn(C(C)C)cc(-c5ccc(F)cc5)c4=O)nc3)c2cc1OC [Compound 16, N-(5-((6,7-dimethoxyquinolin-4-yl)oxy)pyrimidine-2-yl)-5-(4-fluorophenyl)-1-isopropyl-4-oxo-1,4-dihydropyridazine-3-carboxamide]
IC50 [1]: < 1.1 nM | IC50 [2]: 12 nM

COc1cc2nccc(Oc3ccc(NC(=O)c4nn(C5CC5)cc(-c5ccc(C)cc5)c4=O)nc3)c2cc1OC [Compound 46, 1-cyclopropyl-N-(5-((6,7-dimethoxyquinolin-4-yl)oxy)pyridin-2-yl)-4-oxo-5-p-tolyl-1,4-dihydropyridazine-3-carboxamide]
IC50 [1]: < 1.1 nM

COc1cc2nccc(Oc3ccc(NC(=O)c4cn(C5CC5)nc(-c5ccc(F)cc5)c4=O)cn3)c2cc1OC [Compound 43, 2-cyclopropyl-N-(6-((6,7-dimethoxyquinolin-4-yl)oxy)pyridin-3-yl)-6-para-fluorophenyl-5-oxo-2,5-dihydropyridazine-4-carboxamide]
IC50 [1]: 3.3 nM
